Results on 28 compounds are retold here after patent US11802111B2, “Cyclobutyl amide monoacylglycerol lipase modulators” (Janssen Pharmaceutica NV, priority 2020, dated 2023).

human MGL from HeLa cells, sequence (Q99685 whole entry): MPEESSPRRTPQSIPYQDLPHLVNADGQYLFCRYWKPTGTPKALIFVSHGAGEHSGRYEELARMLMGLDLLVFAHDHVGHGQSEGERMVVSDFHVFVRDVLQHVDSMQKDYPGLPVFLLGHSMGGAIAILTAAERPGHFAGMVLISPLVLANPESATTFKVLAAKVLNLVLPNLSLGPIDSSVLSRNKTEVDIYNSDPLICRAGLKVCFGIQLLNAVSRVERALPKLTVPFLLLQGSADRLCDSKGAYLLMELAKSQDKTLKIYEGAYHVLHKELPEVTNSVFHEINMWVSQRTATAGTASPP

The target in this test is human MGL from HeLa cells (Homo sapiens (Human), UniProt Q99685). The test can be described thus: MGL in vitro activity assay ([glycerol-1,3-3H]-oleoyl glycerol hydrolysis, activated carbon filtration). As to conditions: 300 nM [Glycerol-1,3-3H]-oleoyl glycerol, one hour. The format is biochemical. The gist of the method:
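Endogenous human MGL in HeLa cells/homogenates incubated 1 h with test compounds and 300 nM [glycerol-1,3-3H]-oleoyl glycerol. Released 3H-glycerol passing an activated carbon filter counted as activity; screening at 10 μM compound, top IC50 concentration set empirically.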
The IC50 is the concentration needed to halve the response being measured. A low value points to inhibition by little substance. For `C[C@]1(O)C[C@@H](C(=O)N2CC3(CC[C@H](c4cccc(C5CC5)c4F)C3)C2)C1` (stereo in doubt) [Example 26, ((*S)-6-(3-Cyclopropyl-2-fluorophenyl)-2-azaspiro[3.4]octan-2-yl)((1s,3*R)-3-hydroxy-3-methylcyclobutyl)methanone], the IC50 came out at 28 nM.

`C[C@]1(O)C[C@@H](C(=O)N2CC3(CC[C@@H](c4cccc(OC(F)(F)F)c4)C3)C2)C1` (stereo in doubt) [Example 41, ((1s,3*S)-3-Hydroxy-3-methylcyclobutyl)((*R)-6-(3-(trifluoromethoxy)phenyl)-2-azaspiro[3.4]octan-2-yl)methanone] registered an IC50 of 23 nM.

As for `C[C@]1(O)C[C@@H](C(=O)N2CC3(CC[C@H](c4cccc(OC(F)(F)F)c4)C3)C2)C1` (stereo in doubt) [Example 42, ((1s,3*R)-3-Hydroxy-3-methylcyclobutyl)((*S)-6-(3-(trifluoromethoxy)phenyl)-2-azaspiro[3.4]octan-2-yl)methanone], the IC50 is 22 nM.

For the compound `CC(C)(C)c1cccc([C@@H]2CCC3(C2)CN(C(=O)[C@H]2C[C@@](C)(O)C2)C3)c1` (stereo in doubt) [Example 44, ((*R)-6-(3-(tert-Butyl)phenyl)-2-azaspiro[3.4]octan-2-yl)((1s,3*S)-3-hydroxy-3-methylcyclobutyl)methanone], inhibition was half-maximal at 9.8 nM (IC50).

Compound `CC(C)(C)c1cccc([C@H]2CCC3(C2)CN(C(=O)[C@H]2C[C@@](C)(O)C2)C3)c1` (stereo in doubt) [Example 45, ((*S)-6-(3-(tert-Butyl)phenyl)-2-azaspiro[3.4]octan-2-yl)((1s,3*R)-3-hydroxy-3-methylcyclobutyl)methanone] had a 50% inhibitory concentration (IC50) of 11 nM.

`CC(C)c1cccc([C@@H]2CCC3(C2)CN(C(=O)[C@H]2C[C@@](C)(O)C2)C3)c1` (stereo in doubt) [Example 47, ((1s,3*S)-3-Hydroxy-3-methylcyclobutyl)((*R)-6-(3-isopropylphenyl)-2-azaspiro[3.4]octan-2-yl)methanone]: half-maximal inhibition (IC50) required 21 nM.

As to `CC(C)c1cccc([C@H]2CCC3(C2)CN(C(=O)[C@H]2C[C@@](C)(O)C2)C3)c1` (stereo in doubt) [Example 48, ((1s,3*R)-3-Hydroxy-3-methylcyclobutyl)((*S)-6-(3-isopropylphenyl)-2-azaspiro[3.4]octan-2-yl)methanone], the half-maximal inhibitory concentration (IC50) worked out at 17 nM.

With `C[C@]1(O)C[C@@H](C(=O)N2CC3(CC[C@@H](c4ccc(OC(F)(F)F)cc4)C3)C2)C1` (stereo in doubt) [Example 53, ((1s,3*S)-3-Hydroxy-3-methylcyclobutyl)((*R)-6-(4-(trifluoromethoxy)phenyl)-2-azaspiro[3.4]octan-2-yl)methanone], the IC50 came to 10 nM.

On to `C[C@]1(O)C[C@@H](C(=O)N2CC3(CC[C@H](c4ccc(OC(F)(F)F)cc4)C3)C2)C1` (stereo in doubt) [Example 54, ((1s,3*R)-3-Hydroxy-3-methylcyclobutyl)((*S)-6-(4-(trifluoromethoxy)phenyl)-2-azaspiro[3.4]octan-2-yl)methanone], for which the IC50 came out at 10 nM.

Regarding `C[C@]1(O)C[C@@H](C(=O)N2CC3(CC[C@@H](c4ccc(C(F)(F)F)cc4)C3)C2)C1` (stereo in doubt) [Example 56, ((1s,3*S)-3-Hydroxy-3-methylcyclobutyl)((*R)-6-(4-(trifluoromethyl)phenyl)-2-azaspiro[3.4]octan-2-yl)methanone], the midpoint of inhibition, the IC50, lay at 22 nM.

As to `C[C@]1(O)C[C@@H](C(=O)N2CC3(CC[C@H](c4ccc(C(F)(F)F)cc4)C3)C2)C1` (stereo in doubt) [Example 57, ((1s,3*R)-3-Hydroxy-3-methylcyclobutyl)((*S)-6-(4-(trifluoromethyl)phenyl)-2-azaspiro[3.4]octan-2-yl)methanone], the IC50 came out at 24 nM.

Turning to `C[C@]1(O)C[C@@H](C(=O)N2CC3(CC[C@@H](c4cccc(C5CC5)c4)C3)C2)C1` (stereo in doubt) [Example 59, ((*R)-6-(3-Cyclopropylphenyl)-2-azaspiro[3.4]octan-2-yl)((1s,3*S)-3-hydroxy-3-methylcyclobutyl)methanone], the concentration for half-maximal inhibition (IC50) was 37 nM.

Compound `C[C@]1(O)C[C@@H](C(=O)N2CC3(CC[C@H](c4cccc(C5CC5)c4)C3)C2)C1` (stereo in doubt) [Example 60, ((*S)-6-(3-Cyclopropylphenyl)-2-azaspiro[3.4]octan-2-yl)((1s,3*R)-3-hydroxy-3-methylcyclobutyl)methanone] showed a half-inhibitory concentration (IC50) of 25 nM.

Compound `C[C@]1(O)C[C@@H](C(=O)N2CC3(CC[C@@H](c4cccc(C(F)(F)F)c4)C3)C2)C1` (stereo in doubt) [Example 62, ((1s,3*S)-3-Hydroxy-3-methylcyclobutyl)((*R)-6-(3-(trifluoromethyl)phenyl)-2-azaspiro[3.4]octan-2-yl)methanone] returned an IC50 of 34 nM.

With `C[C@]1(O)C[C@@H](C(=O)N2CC3(CC[C@H](c4cccc(C(F)(F)F)c4)C3)C2)C1` (stereo in doubt) [Example 63, ((1s,3*R)-3-Hydroxy-3-methylcyclobutyl)((*S)-6-(3-(trifluoromethyl)phenyl)-2-azaspiro[3.4]octan-2-yl)methanone], the midpoint of inhibition, the IC50, lay at 22 nM.

The compound `Cc1cc([C@@H]2CCC3(C2)CN(C(=O)[C@H]2C[C@@](C)(O)C2)C3)ccc1OC(F)F` (stereo in doubt) [Example 73, ((*R)-6-(4-(Difluoromethoxy)-3-methylphenyl)-2-azaspiro[3.4]octan-2-yl)((1s,3*S)-3-hydroxy-3-methylcyclobutyl)methanone] showed an IC50 of 8.1 nM.

`Cc1cc([C@H]2CCC3(C2)CN(C(=O)[C@H]2C[C@@](C)(O)C2)C3)ccc1OC(F)F` (stereo in doubt) [Example 74, ((*S)-6-(4-(Difluoromethoxy)-3-methylphenyl)-2-azaspiro[3.4]octan-2-yl)((1s,3*R)-3-hydroxy-3-methylcyclobutyl)methanone] registered a 50% inhibitory concentration (IC50) of 6.8 nM.

In the case of `C[C@]1(O)C[C@@H](C(=O)N2CC3(CC[C@H](Cc4cccc(C(F)(F)F)c4)C3)C2)C1` (stereo in doubt) [Example 177, ((1s,3*S)-3-Hydroxy-3-methylcyclobutyl)((*R)-6-(3-(trifluoromethyl)benzyl)-2-azaspiro[3.4]octan-2-yl)methanone], half-maximal inhibition (IC50) was put at 14 nM.

In turn, `C[C@]1(O)C[C@@H](C(=O)N2CC3(CC[C@@H](Cc4cccc(C(F)(F)F)c4)C3)C2)C1` (stereo in doubt) [Example 178, ((1s,3*R)-3-Hydroxy-3-methylcyclobutyl)((*S)-6-(3-(trifluoromethyl)benzyl)-2-azaspiro[3.4]octan-2-yl)methanone] came in with an IC50 of 11 nM.

For `C[C@@H](c1ccccc1)C1CC2(C1)CN(C(=O)[C@H]1C[C@@](C)(O)C1)C2` (stereo in doubt) [Example 310, ((1s,3*S)-3-Hydroxy-3-methylcyclobutyl)(6-((*R)-1-phenylethyl)-2-azaspiro[3.3]heptan-2-yl)methanone], it took 33 nM to reach half-maximal inhibition (IC50).

On to `C[C@H](c1ccccc1)C1CC2(C1)CN(C(=O)[C@H]1C[C@@](C)(O)C1)C2` (stereo in doubt) [Example 311, ((1s,3*R)-3-Hydroxy-3-methylcyclobutyl)(6-((*S)-1-phenylethyl)-2-azaspiro[3.3]heptan-2-yl)methanone], for which it took 77 nM to reach half-maximal inhibition (IC50).

`Cc1nc([C@H](C)C2CC3(C2)CN(C(=O)[C@H]2C[C@@](C)(O)C2)C3)ccc1C(F)(F)F` (stereo in doubt) [Example 312, ((1s,3*S)-3-Hydroxy-3-methylcyclobutyl)(6-((*R)-1-(6-methyl-5-(trifluoromethyl)pyridin-2-yl)ethyl)-2-azaspiro[3.3]heptan-2-yl)methanone]: the IC50 worked out at 5.4 nM.

`Cc1nc([C@@H](C)C2CC3(C2)CN(C(=O)[C@H]2C[C@@](C)(O)C2)C3)ccc1C(F)(F)F` (stereo in doubt) [Example 313, ((1s,3*R)-3-Hydroxy-3-methylcyclobutyl)(6-((*S)-1-(6-methyl-5-(trifluoromethyl)pyridin-2-yl)ethyl)-2-azaspiro[3.3]heptan-2-yl)methanone] came in with a half-maximal inhibitory concentration (IC50) of 52 nM.

With `C[C@@H](c1ccc2cnn(C)c2c1)C1CC2(C1)CN(C(=O)[C@H]1C[C@@](C)(O)C1)C2` (stereo in doubt) [Example 314, ((1s,3*S)-3-Hydroxy-3-methylcyclobutyl)(6-((*R)-1-(1-methyl-1H-indazol-6-yl)ethyl)-2-azaspiro[3.3]heptan-2-yl)methanone], it took 130 nM to reach half-maximal inhibition (IC50).

`C[C@H](c1ccc2cnn(C)c2c1)C1CC2(C1)CN(C(=O)[C@H]1C[C@@](C)(O)C1)C2` (stereo in doubt) [Example 315, ((1s,3*R)-3-Hydroxy-3-methylcyclobutyl)(6-((*S)-1-(1-methyl-1H-indazol-6-yl)ethyl)-2-azaspiro[3.3]heptan-2-yl)methanone]: the IC50 is 45 nM.

As for `Cc1ccc([C@H]2CCC3(C2)CN(C(=O)[C@H]2C[C@@](C)(O)C2)C3)c(C)c1` (stereo in doubt) [Example 321, ((*S)-6-(2,4-Dimethylphenyl)-2-azaspiro[3.4]octan-2-yl)((1s,3*R)-3-hydroxy-3-methylcyclobutyl)methanone], half-maximal inhibition (IC50) required 36 nM.

For `Cc1ccc([C@@H]2CCC3(C2)CN(C(=O)[C@H]2C[C@@](C)(O)C2)C3)c(C)c1` (stereo in doubt) [Example 322, ((*R)-6-(2,4-Dimethylphenyl)-2-azaspiro[3.4]octan-2-yl)((1s,3*S)-3-hydroxy-3-methylcyclobutyl)methanone], the IC50 is 64 nM.

Compound `Cc1cc(C)cc([C@H]2CC[C@]3(CC2)CN(C(=O)[C@H]2C[C@@](C)(O)C2)[C@H]3C)c1` (stereo in doubt) [Example 348, ((1*S,4r,7*S)-7-(3,5-Dimethylphenyl)-1-methyl-2-azaspiro[3.5]nonan-2-yl)((1s,3*R)-3-hydroxy-3-methylcyclobutyl)methanone] displayed a concentration for half-maximal inhibition (IC50) of 326 nM.
